In US5827073A, “Photoreactive peptide derivatives” (Ludwig Institute for Cancer Research, priority 1995, dated 1998):
“Also recorded” adds a separate entry of the source. Where no end group is shown, it is not given here. [ ]: non-standard residue; d: D form. IASA = not defined here; Dap = NC[C@H](N)C(=O)O

Experiments:
Type in all cases: binding, human
HLA-A1 [1] = assay: HLA-A1 photoaffinity labelling of HLA-A1 transfected C1R cells with radioiodinated peptide derivative; conditions: β2-microglobulin, 26° C., UV irradiation, SDS-PAGE
Description: (§1) All photoaffinity labelling procedures were performed essentially as described by Luescher et al., J. Immunol., 148:1003-011 (1992); Luescher et al., Nature, 351:72-74 (1991); Romero et al., J. Exp. Med., 177:1247-1256 (1993); Luescher et al., J. Biol. Chem., 269:5574-5592 (1994); and Romero et al., J. Immunol. Methods, 171:73-84 (1994). Briefly, HLA-A1 transfected C1R cells, cultured in hygromycin containing medium, or other cell types were resuspended in DMEM medium supplemented with 0.5% fetal calf serum, 10 mM HEPES and 0.25 μg/ml human β2-microglobulin, or as specified, at 6 ×10^6 cells/ml. One ml aliquotes were incubated in 6-well plates with 20 ×10^6 cpm of peptide derivative at 26° C. for 4 hours or as specified.
(§2) After UV irradiation with a 15 W mercury fluorescence lamp with an emission maximum at 365 nm and a band width of 80 nm for 4 minutes at a lamp-sample distance of 2 cm, the cells were washed 4 times with DMEM containing 2% calf serum and 1 time with PBS. The washed cells were lysed and boiled in reducing sample buffer supplemented with MgCl2 and subjected to SDS-PAGE. Alternatively the UV irradiated samples were lysed with NP-40 detergent (0.7%) on ice in the presence of HEPES (50 mM), leupeptin (10 μg/ml), PMSF (0.1 mM), and iodoacetamide (10 MM). Immunoprecipitation of HLA molecules with immobilized W6/32 mAb (Brodsky et al., J. Immunol., 128:129-135 (1982) and SDS-PAGE analysis of the immunoprecipitate were performed as described by Luescher et al., Electrophoresis, 8:508 (1987). The gels were evaluated by autoradiography and in some experiments by densitometry as described by Luescher et al., J. Immunol., 148:1003-1011 (1992). Each labelling experiment was performed at least twice.
To perform competition assays, ^51 Cr labelled C1R HLA-A1 transfected cells were incubated in the presence of a suboptimal concentration of the MAGE-3 peptide 168-176 with cloned HLA-A1-restricted MAGE-3-specific CTL 20/38. […] Alternatively, the radioiodinated peptide derivatives were incubated with HLA-A1 transfected C1R cells and following UV irradiation, the lysates of the washed cells were analyzed by SDS-PAGE (10%, reducing conditions).
Following incubation of these cells with the radioiodinated peptide derivatives and UV irradiation, cell lysates were analyzed by SDS-PAGE (FIG. 4B).

HLA class I molecules [2] = assay: Photoaffinity labelling of a panel of cell lines expressing different HLA class I molecules; conditions: COS-7 transfectant
HLA class I molecules [3] = assay: as above; conditions: for photoaffinity labelling of 45 kDa HLA heavy chain on LG2-EBV cells: lane 11
Description: as §1, §2
The first 9 were HLA homozygous EBV transformed cells lines that have been described at the 10th International Histocompatibility Workshop (DuPont, Immunobiology of HLA, New York, Springer-Verlag, Vol. 1 (1987)). Workshop numbers are indicated as "ws#", and their HLA-C expression has been determined by PCR (Levine et al., Tissue Antigens, 44:174 (1994)). The heterozygous EBV transformed cell lines were derived from HLA-typed individuals. In the case of HLA-C, the serological typing was incomplete, as indicated by question marks. The remaining cell line was COS-7 cell transfected with HLA-Cw*1601. These cells were subjected to the same labelling procedure as described for FIG. 4B.

HLA-A29 = assay: Inhibition of HLA-A29 photoaffinity labelling on 807-02 cells by competitor peptides; conditions: for inhibition of HLA-A29 photoaffinity labelling (HLA-A29 competitor activity / binding): 20-fold molar excess of competitor, FIG. 6B
Description: as §1, §2
After UV irradiation, the cells were lysed and the immunoprecipitated HLA molecules were analyzed by SDS-PAGE and the resulting autoradiograms were evaluated by densitometry. All experiments were performed at least in triplicate. Hundred percent labelling refers to the labelling observed in the absence of a competitor peptide (FIG. 6A).

HLA-A1 [4] = assay: Inhibition of HLA-A1 photoaffinity labelling on C1R/A1 cells by competitor peptides; conditions: for binding of MAGE-3 peptide variants to HLA-A1: single alanine substitutions, method not stated
HLA-A1 [5] = assay: Dissociation of HLA-A1 peptide derivative complexes on C1R/A1 cells; conditions: physiological conditions (37° C., no exogenous β2-microglobulin), after 6 hours
Description: FIG. 3 is comprised of FIG. 3A, FIG. 3B and FIG. 3C. FIG. 3A represents SDS-PAGE analysis of EADPTGDap(IASA)SY incubated with C1R/A1 cells or WT51 cells in the presence of β2-microglobulin. FIG. 3B represents SDS-PAGE where incubation was performed at 37° C. or 26° C. in the absence of presence of β2-microglobulin, and the autoradiograms were evaluated by densitometry.
This considerable increase is mainly accounted for by an accordingly less efficient peptide binding under physiological conditions (i.e., 37° C. and no exogenous β2-microglobulin) . Another difference between the human and murine system is the difference in the stability of MHC class 1-peptide complexes. On C1R/A1 cells, the dissociation of HLA-A1 peptide derivative complexes under physiological conditions was remarkably slow, and even after 6 hours of incubation less than 20% dissociation took place (FIG. 3C). Similarly slow dissociations have been reported for other HLA class I molecules (DiBrino et al., J. Immunol., 152:620-631 (1994); Tsomides et al., Proc. Natl. Acad. Sci. USA, 88:11276 (1991)). In contrast, in the murine system, i.e., the Kd, Db of Ld system, under these conditions rapid dissociations with halftimes in the range of one hour have been reported (Luescher et al., Nature, 351:72-74 (1991); Luescher et al., J. Biol. Chem., 269:5574-5582 (1994); Romero et al., 1994, supra).

[6] = labelling with Dap(IASA)-ADPTGHSY on C1R HLA-A1 transfectants, 100-fold molar excess of competitor, densitometry

Question: What does the source list for “Dap(IASA)-ADPTGHSY ([Dap](IASA)ADPTGHSY; reading uncertain)”?
Answer: HLA-A1 photoaffinity labelling (45 kDa HLA-A1 heavy chain) (HLA-A1 [1]): efficiently bound to and photoaffinity labelled HLA-A1; HLA-A1 photoaffinity labelling (45 kDa HLA-A1 heavy chain) (HLA-A1 [1]; listed as derivative containing Dap(IASA) in position 1): efficiently labelled; HLA labelling on COS-7 cells transfected with HLA-A1 (HLA class I molecules [2]): displayed HLA labelling; HLA labelling on COS-7 cells transfected with HLA-A29 (HLA class I molecules [2]): displayed HLA labelling; HLA labelling on 806-04 cells (HLA class I molecules [3]; 806-04 (HLA-A29+)): similarly efficient HLA labelling; photoaffinity labelling of 45 kDa HLA heavy chain on 807-02 cells (HLA class I molecules [3]; 807-02 (HLA-A29+), lane 15): significant photoaffinity labelling; also recorded: similarly efficient HLA labelling; photoaffinity labelling of 45 kDa HLA heavy chain on BM21 cells (HLA class I molecules [3]; EBV transformed line BM21 (HLA-A1), lane 1): significant photoaffinity labelling; photoaffinity labelling of 45 kDa HLA heavy chain on MOU cells (HLA class I molecules [3]; EBV transformed line MOU (HLA-A*2902, HLA-B*4403), lane 4): significant photoaffinity labelling; photoaffinity labelling of 45 kDa HLA heavy chain on LG2-EBV cells (HLA class I molecules [3]): significant photoaffinity labelling; photoaffinity labelling of 45 kDa HLA heavy chain on LG2-EBV cells (HLA class I molecules [3]; listed as SEQ ID NO: 8): weak labelling; photoaffinity labelling of 45 kDa material on the other lines tested (HLA class I molecules [3]; lanes 2, 3, 5-10, 12-14): not detectable

Question: “MAGE-3 variant substitution in position 2 with isoleucine: MAGE-3 peptide 168-176 with position 2 replaced by isoleucine (EIDPIGHLY; UniProt P43357 168-176, looked up, variant V169I)” was tested. Which “inhibition of HLA-A29 photoaffinity labelling (HLA-A29 competitor activity / binding)” value (HLA-A29) did it give?
Answer: Its value is “increased”.

Question: Which results are given for “MAGE-3: HLA-A1 restricted MAGE-3 peptide 168-176”?
Answer: inhibition of HLA-A1 photoaffinity labelling (HLA-A1 [4]; [6]): about 98%; inhibition of HLA-A1 photoaffinity labelling (HLA-A1 [4]; labelling with SEQ ID NO: 1 on C1R/A1 cells, 300 fold molar excess of competitor): completely inhibited; inhibition of HLA-A29 photoaffinity labelling (HLA-A29 competitor activity / binding) (HLA-A29): approximately 80%

Question: “MAGE-3 variant Tyr-176 replaced with phenylalanine: MAGE-3 peptide 168-176 with C-terminal tyrosine replaced by phenylalanine (EVDPIGHLF; UniProt P43357 168-176, looked up, variant Y176F)” was tested. Which “inhibition of HLA-A29 photoaffinity labelling (HLA-A29 competitor activity / binding)” value (HLA-A29) did it give?
Answer: Its value is “largely preserved the HLA-A29 competitor activity; also recorded: considerably diminishes binding”.

Question: What does the source list for “tyrosinase peptide 368-376: HLA-A2-restricted tyrosinase peptide 368-376 (IYMNGTMSQ; UniProt P14679 368-376, looked up, fragment) [reference compound]”?
Answer: inhibition of HLA-A1 photoaffinity labelling (HLA-A1 [4]; [6]): No significant inhibition; inhibition of HLA-A29 photoaffinity labelling (HLA-A29; labelling with Dap(IASA)-ADPTGHSY on 807-02 cells, 100-fold molar excess of competitor, densitometry): no detectable inhibition

Question: How did the “inhibition of HLA-A29 photoaffinity labelling (HLA-A29 competitor activity / binding)” value (HLA-A29) turn out when “MAGE-3 variant alanine substitution of Val-169: MAGE-3 peptide 168-176 with Val-169 (position 2) replaced by alanine (EADPIGHLY; UniProt P43357 168-176, looked up, variant V169A)” was run?
Answer: Its value is “to a lesser degree”.

Question: And the “inhibition of HLA-A29 photoaffinity labelling (HLA-A29 competitor activity / binding)” value (HLA-A29; listed as MAGE-3 variant substitution in position 2 with alanine)?
Answer: The value was “impaired”.

Question: Which results are given for “Glu Ala Asp Pro Thr Gly Dap(IASA) Ser Tyr (EADPTG[Dap](IASA)SY; reading uncertain; also: radioiodinated, printed as Glu Ala Asp Pro Thr Gly Dap(IASA) Ser Tyr) [SEQ ID NO: 1]”?
Answer: dissociation of HLA-A1 peptide derivative complexes (HLA-A1 [5]): less than 20%; HLA-A1 photoaffinity labelling (45 kDa HLA-A1 heavy chain) (HLA-A1 [1]): corresponds to the HLA-A1 heavy chain; HLA-A1 photoaffinity labelling (45 kDa HLA-A1 heavy chain) (HLA-A1 [1]; listed as derivative containing Dap(IASA) in position 7): efficiently labelled; HLA labelling on eight other EBV cell lines (HLA class I molecules [3]; eight other EBV cell lines expressing different HLA-A, B and C molecules): Equally negative; HLA labelling on TEM cells (HLA class I molecules [3]; homozygous EBV transformed line TEM, HLA-A26, B-38): No detectable HLA labelling; HLA labelling on WT51 cells (HLA class I molecules [3]; homozygous EBV transformed line WT51, HLA-A23, B65): No detectable HLA labelling

Question: Which “binding of MAGE-3 peptide variants to HLA-A1” value (HLA-A1 [4]) does the source give for “MAGE-3 variant alanine substitution of Asp-170: MAGE-3 peptide 168-176 with Asp-170 replaced by alanine (EVAPIGHLY; UniProt P43357 168-176, looked up, variant D170A)” here?
Answer: The value was “substantially impaired its binding”.

Question: With “MAGE-3 variant alanine substitution of Ile-172: MAGE-3 peptide 168-176 with Ile-172 replaced by alanine (EVDPAGHLY; UniProt P43357 168-176, looked up, variant I172A)” as the substance, how does the “inhibition of HLA-A29 photoaffinity labelling (HLA-A29 competitor activity / binding)” value (HLA-A29) read?
Answer: The value was “markedly reduced the binding”.

Question: For “MAGE-3 variant substitution in position 2 with phenylalanine: MAGE-3 peptide 168-176 with position 2 replaced by phenylalanine (EFDPIGHLY; UniProt P43357 168-176, looked up, variant V169F)”, which “inhibition of HLA-A29 photoaffinity labelling (HLA-A29 competitor activity / binding)” value (HLA-A29) is on record?
Answer: The value was “increased”.

Question: Which results are given for “MAGE-3 variant containing Ala in position 9: MAGE-3 peptide 168-176 with Tyr-176 replaced by alanine (EVDPIGHLA; UniProt P43357 168-176, looked up, variant Y176A)”?
Answer: binding of MAGE-3 peptide variants to HLA-A1 (HLA-A1 [4]): substantially impaired its binding; inhibition of HLA-A29 photoaffinity labelling (HLA-A29 competitor activity / binding) (HLA-A29): 13%
